Experimental data published in US20070009614A1, “Composition and method for treating hypertension” (Northern Sydney Area Health Service, priority 2002, published 2007).

Experiments:
[1] = reported in literature (refs 15-17); cited from earlier work
[2] = tested on: elderly patients with systolic hypertension; experiment: Group I: double-blind randomised crossover study of single doses in patients with systolic hypertension, no baseline angiotensin II inhibition; conditions: for Sitting brachial blood pressure systolic: at 11.00 h after single dose at 08.00 h (ISMN 60 mg, captopril 25 mg, eprosartan 600 mg), placebo 173 ± 3; for Sitting brachial blood pressure systolic / Heart rate (sitting) / Sitting brachial blood pressure diastolic / Standing brachial blood pressure diastolic / Standing brachial blood pressure systolic / decrease in P1 (aortic first peak pressure) at nadir / decrease in P2 (augmentation pressure) at nadir: mean ± SEM; for Heart rate (sitting) / Sitting brachial blood pressure diastolic / Standing brachial blood pressure diastolic / Standing brachial blood pressure systolic: at 11.00 h after single dose at 08.00 h; for Heart rate (sitting): placebo 60 ± 4; for Sitting brachial blood pressure diastolic: placebo 82 ± 3; for Standing brachial blood pressure diastolic: placebo 83 ± 3; for Standing brachial blood pressure systolic: placebo 166 ± 4; for effect on augmentation index: post-dose observation period; for effect on aortic systolic blood pressure: ISMN and captopril P<0.0001, eprosartan P<0.001; for aortic systolic pressure lower than control at nadir of hypotensive effect: nadir ISMN 10.00 h, captopril 11.00 h, eprosartan 09.00 h
Description: The subjects were sixteen patients with long-standing hypertension, referred from their family physicians after having undergone treatment trials using a variety of conventional antihypertensive agents without reaching satisfactory control of systolic blood pressure. […] Plasma creatinine concentration was <0.15 mmol/l in every case. There was a history of myocardial infarction Or coronary bypass grafting in eight subjects, of peripheral vascular disease in four, and of diabetes mellitus (not requiring medication) in one. All patients were fully ambulant without symptomatic cardiac disease or known vascular aneurysm. Their current regimen of antihypertensive therapy had been stable for three weeks or more, and was continued unchanged through the present study. None had received nitrate therapy previously. Two different study protocols were used. One patient participated in both protocols with a 15-month break in between. Entry to either study required that systolic blood pressure should be between 150 and 200 mmHg, and that diastolic blood pressure should be equal to or less than 100 mmHg.
Group I protocol. […] Their baseline anti-hypertensive therapy, which excluded ACE inhibitors and angiotensin II receptor antagonists, consisted of one to three of the following drugs in conventional dosage:. diuretics (7 cases), beta blockers (7), prazosin (1), amlodipine (4), nifedipine controlled-release formulation (2). […] The pulse wave and pulse rate were measured at the same intervals. Between observations, the subjects engaged in sedentary recreational activities in a temperature-controlled environment.
Brachial blood pressure was recorded by sphygmomanometer, and pulse wave tonometry was performed at the radial artery with the patient seated. The aortic pulse wave form was determined and the aortic first peak pressure (P1) and augmentation pressure (P2) were quantified by computer software (SphygmoCor, AtCor Medical, Sydney), as previously reported.^13 Augmentation index (P2 expressed as % of pulse pressure) described the magnitude of wave reflection. Statistical analysis was by repeated measures analysis of variance using PRISM (GraphPad Software Inc., San Diego, Calif.) and post-hoc paired t tests. Values given are mean±SEM.

[3] = tested on: elderly patients with systolic hypertension on chronic angiotensin II inhibitors; experiment: Group II: double-blind randomised crossover study of single-dose ISMN in patients with AII inhibition at baseline; type: in vivo, human; conditions: for decrease in sitting diastolic pressure: not significant
Protocol: None had received nitrate therapy previously. Two different study protocols were used. […] Group II protocol. […] The two study days were one to two weeks apart. Observations were made from 0800 h to 1600 h as in Group I. These subjects differed from Group I in that they were receiving treatment at study entry with ACE inhibitor or angiotensin II receptor antagonist drugs, as follows: monopril 10 mg/d (1 case), captopril 50 mg/d (1), ramipril 10 mg/day (1), ramipril 10 mg/d and candesartan 16 mg/d (1), irbesartan 300 mg/d (1), telmisartan 40 mg/d (1). Their other baseline antihypertensive drug therapy consisted of 1-2 of the following agents in conventional dosage: hydrochlorthiazide (1), beta blockers (2), amlodipine (1), diltiazem controlled-delivery formulation (2). […] Values given are mean±SEM.

Row | SMILES | time to reach peak plasma concentration [1] [h] | Sitting brachial blood pressure systolic ([2]; Group I) [mm Hg] | Heart rate (sitting) ([2]; Group I) [bpm] | Sitting brachial blood pressure diastolic ([2]; Group I) [mm Hg] | Standing brachial blood pressure diastolic ([2]; Group I) [mm Hg] | Standing brachial blood pressure systolic ([2]; Group I) [mm Hg] | effect on augmentation index ([2]; Group I) | effect on heart rate ([2]; Group I, single dose) | effect on aortic systolic blood pressure ([2]; Group I, single dose) | decrease in P1 (aortic first peak pressure) at nadir ([2]; Group I, single dose) [mmHg] | decrease in P2 (augmentation pressure) at nadir ([2]; Group I, single dose) [mm Hg] | aortic systolic pressure lower than control at nadir of hypotensive effect ([2]; Group I, single dose) [mm Hg] | also measured
1 | C[C@H](CS)C(=O)N1CCC[C@H]1C(=O)O [Captopril, captopril] | 1 | 148 ± 5 | 59 ± 4 | 78 ± 2 | 78 ± 2 | 143 ± 5 | Neither captopril nor eprosartan altered | not changed | significantly decreased | 9±2 | 9±3 | 23 | 
2 | CCCCc1ncc(/C=C(\Cc2cccs2)C(=O)O)n1Cc1ccc(C(=O)O)cc1 [Eprosartan, eprosartan] | 1 to 2 | 158 ± 5 | 59 ± 4 | 78 ± 3 | 83 ± 4 | 152 ± 4 | Neither captopril nor eprosartan altered | not changed | significantly decreased | 4±2 | 6±3 | 15 | 
3 | O=[N+]([O-])O[C@@H]1CO[C@H]2[C@@H]1OC[C@@H]2O [ISMN, isosorbide mononitrate] | 3 to 4 | 145 ± 5 | 60 ± 5 | 77 ± 3 | 77 ± 3 | 139 ± 4 | significantly reduced |  | significantly decreased | 11±2 | 19±3 | 34 | peak decrease in augmentation index ([2]; FIGS. 1 and 2 (Groups I and II)): approximately 50 % of control; average post-dose decrease in augmentation index ([2]; Group I, ISMN 60 mg single dose, control 37.9±1.0%): 15±1%; average post-dose decrease in aortic systolic pressure ([2]; Group I, ISMN 60 mg single dose, control 160±2): 29±2 mmHg; Heart rate average post-dose increase ([2]; Group I, single dose, P<0.001): 3±1 b.p.m.; duration of depressor effect ([2]; extended-release preparation, observation to 16.00 h): sustained through the remainder of the observation period; average post-dose decrease in augmentation index ([3]; Group II (baseline AII inhibition), ISMN 60 mg single dose, control 38.5±1.1%): 16±1%; average post-dose decrease in aortic systolic pressure ([3]; Group II (baseline AII inhibition), ISMN 60 mg single dose, control 154±2): 34±3 mmHg; effect on sitting and standing brachial systolic blood pressure ([3]; Group II, P<0.0001): decreased; decrease in sitting brachial systolic blood pressure ([3]; Group II, at 12.00 h, from control value 176, P<0.001): 37 mm Hg; decrease in sitting diastolic pressure ([3]; Group II, at 12.00 h): 13 mm Hg; decrease in sitting brachial systolic blood pressure ([3]; Group II, at 16.00 h, from control value 173, P<0.001): 34 mm Hg; decrease in sitting diastolic pressure ([3]; Group II, at 16.00 h): 10 mm Hg; Heart rate, overall mean value ([3]; Group II, increased from mean value of 60, P<0.001): 64 bpm
